Source: ChEMBL document CHEMBL3507680, “University of Dundee, Gates Library screen for HepG2 cell viability”

experiment: Human HepG2 cell viability assay in 384 well format; type: toxicity, cell-based; design: dose 125 nL, time 70.5 hour; concentration not given beside the values; settings: HepG2 cells, read-out: Inhibition

SMILES	cytotoxicity at 70.5 h
CC(=O)N1CCC(Cc2nccnc2-c2ccnn2C)CC1	-2.74%
CCc1nnc(CN2CCN(CC(O)c3ccccc3)CC2)o1 (centres undefined)	-1.5%
Cn1ccnc1CN1CCN2C[C@H](OCc3ccccc3)C[C@H]2C1	-1.75%
CC(c1cccc(S(N)(=O)=O)c1)N(C)CCOc1ccccc1 (centres undefined)	-16.8%
Cc1cnn(CC2CN(CCc3ccccn3)CCO2)c1 (centres undefined)	-7.7%
COc1ccc(C2CNCCN2C(=O)c2cccc3ncccc23)cc1 (centres undefined)	-3.21%
COc1c(CNC(c2nccn2C)C(C)C)c(C)nn1C (centres undefined)	-6.48%
Cc1nc[nH]c1CN(Cc1ccc(F)cc1)C1CC(C)(C)NC(C)(C)C1	-2.59%
CS(=O)(=O)NC1CC2(CCN(CCF)CC2)Oc2ccccc21 (centres undefined)	-4.96%
CN(C)c1ncc(NC(=O)c2cccc(Nc3cnn(C)c3)c2)cn1	2.52%
O=C(c1cccc2ccnn12)N1CCCC1Cn1cccn1 (centres undefined)	-2.56%
CSCc1ccc(C(=O)NCCCNc2ccc(C(F)(F)F)cn2)cc1	-13.3%
CCn1cnnc1Cc1nc2c([nH]1)CC(c1ccc(Cl)cc1)CNC2=O (centres undefined)	6.53%
O=C(c1ccc2[nH]cnc2c1)N1CCC(COc2ccccn2)CC1	-5.85%
Cc1n[nH]c(C)c1NC(=O)Nc1cccnc1N1CCCC1	12.8%
O=C(Cc1c[nH]c2ccccc12)NCC1CCN(Cc2c[nH]cn2)C1 (centres undefined)	-6.01%
Cc1noc(C)c1CN1CCc2ncnc(-c3ccoc3)c2CC1	15.5%
COC(=O)CCC(=O)N1CCC2(CN(Cc3ccccc3F)C2)C1	-7.6%
Cc1cc(N(C)C)cc(C2CCN(S(=O)(=O)c3cccnc3)C2)n1 (centres undefined)	1.07%
CC(C)N(C)Cc1ncn2c1CN(S(=O)(=O)c1cccs1)CCC2	13%
CC1=Nc2c(c(=O)[nH]n2C(C)C)C(c2ccc3nccnc3c2)S1 (centres undefined)	-2.49%
CCOc1ccc(C2C3=C(O)OCC3=Nc3nc(SC)nc(N)c32)cc1 (centres undefined)	9.83%
Cc1nc(CC(=O)NCCNc2nccc(C(F)(F)F)n2)cs1	-6.39%

SMILES	cytotoxicity at 70.5 h
C[C@H](NS(C)(=O)=O)C(=O)NCc1cc(-c2ccco2)n[nH]1	-12.9%
CCCOc1cccc(NC(=O)NC2CCc3nc(C)nn3C2)c1 (centres undefined)	-5.39%
CC(C)C(=O)N1CCC(C2C(=O)Nc3ccccc32)CC1 (centres undefined)	-16.1%
OCCCN(CCn1cncn1)c1ccccc1	30.6%
CN1CCN(C2CCN(c3ccnc(-c4ccccc4)n3)CC2)C1=O	6.14%
CN(CCc1cnn(C)c1)C(=O)Cn1c(=O)[nH]c2ccccc21	-6.43%
O=C(CN1C(=O)CCNC1=O)N1CCOC(c2ccc(F)cc2)C1 (centres undefined)	-2.25%
COc1ccccc1CNC(=O)N1CCCC(CO)C1 (centres undefined)	11.7%
CC1=C(C#N)C(=O)NC(=O)/C1=C\c1c(C)nn(-c2ccccc2)c1O	-2.78%
c1cncc(OC[C@]23COC[C@H]2CN(C2CCOCC2)C3)c1	-1.59%
COCCc1noc(CN2CCC(c3ccccc3C(=O)O)C2)n1 (centres undefined)	-20.1%
CCc1noc(C(C)N2CCNCC2)n1 (centres undefined)	0.0476%
O=C1O[C@@H]2CN(Cc3cc4ccccc4s3)C[C@@H]2N1Cc1ccccn1	-6.44%
CCC[C@H]1CN(c2nccc(OC)n2)C[C@@H]1NS(=O)(=O)N(C)C	0.969%
CC(=O)c1ccc(C(=O)NCc2cccnc2N2CCCC(O)C2)s1 (centres undefined)	-14.1%
Cc1ccsc1[C@@H]1CCN(C(=O)c2ccc(-c3cc[nH]n3)cc2)C[C@H]1O	-10.8%
O=C1C=CC=N/C1=C(/O)NCCNS(=O)(=O)N1CCCCCC1	-9.06%
COc1nccc(N2CC[C@H](CO)[C@@H](O)C2)c1C#N	-6.06%
CC[C@H](C)Cn1nc(C2CCNCC2)n(Cc2ccccc2)c1=O	-2.63%
COc1cccc2c1OCC(CNC(=O)Cc1c(C)nc(N)nc1C)C2 (centres undefined)	-7.12%
COCC(=O)NC1CC2(CCN(Cc3ccco3)CC2)c2ccccc21 (centres undefined)	-12.8%
CCOC(C)c1nc(CN2CCN(c3ncc(C)cn3)CC2)cs1 (centres undefined)	-5.09%
O=C(c1cscn1)N1CCC(O)(Cn2ccc3ccncc32)CC1	-6.76%

SMILES	cytotoxicity at 70.5 h
CC(C)n1ncc2c1NC(=O)CC21C(=O)Nc2c(Cl)cccc21 (centres undefined)	-5.46%
CCN(Cc1csc(C)n1)c1cccc(CO)c1	-3.7%
CN(C)CCN1CCC2(CCN(C(=O)c3cccc(F)c3)CC2)C1=O	15.4%
CCOCc1nnc(NCc2ccsc2)o1	-3.37%
CC1CCCCN1CCNC(=O)c1scnc1Cl (centres undefined)	-12.6%
CN(Cc1cnn(C)c1)CC1CCCN1c1cccnn1 (centres undefined)	-4.73%
CCc1cnc(CN(C)C2CCN(CCCS(=O)(=O)NC)C2)o1 (centres undefined)	2.84%
COc1cc(CN(C)C(=O)NC2CC2)ccc1SC	-3.48%
CC1CCN(C(=O)[C@@H]2C[C@@H]3CCN(CC4CCOCC4)C[C@@H]3O2)CC1	-7.26%
CC[C@H](CO)NC(=O)c1coc(COc2ccccc2F)n1	2.14%
Cc1nc(C)n(C2CCCN(C(=O)c3cn4cccnc4n3)C2)n1 (centres undefined)	2.73%
CC(Cn1cccn1)NC(=O)NCCc1cccnc1 (centres undefined)	-8.85%
Cc1ccc(C)c(OCCN2CCC(N3CCNC3=O)CC2)c1	-3.76%
CCc1noc(CN2CCCC2c2noc(C3CC3)n2)n1 (centres undefined)	1.8%
Cn1cccc1C(=O)N1CCn2nnc(COc3cccnc3)c2C1	-8.46%
O=C(Nc1ccc(Cl)cn1)C1CCCN(CCc2ccncc2)C1 (centres undefined)	-1.77%
Cc1cc(C[S+]([O-])Cc2ccccc2F)no1 (centres undefined)	16.6%
COC1CCN(CCNC(=O)NC(C)c2ccc(F)c(F)c2)CC1 (centres undefined)	23.5%
COc1ncc(CN2CC[C@@](C)(O)[C@H](Oc3cccc(F)c3)C2)cn1	5.46%
OCCc1cc(CC2(NCc3ccc(C(F)(F)F)cc3)COC2)no1	-6.19%
Cc1ccc(C(=O)N2CCC3(CCC(C(=O)NCC4CC4)O3)CC2)o1 (centres undefined)	-12.5%
Cc1cc(NCCC(=O)NC(C)C)nc(-c2ccncc2)n1	3.03%
OCC1CCCCN1Cc1nc(Cc2cccc(F)c2)no1 (centres undefined)	-12.1%

SMILES	cytotoxicity at 70.5 h
CCN(Cc1ccncc1)C(=O)C(C)n1ccnc1C(C)C (centres undefined)	-11.1%
CC(C)(CO)CNC(=O)c1cc(-c2cc[nH]n2)n2ccccc12	-97.3%
COCCC(=O)Nc1nccn1Cc1ccc(Br)cc1	-0.141%
O=C(c1ccnn1-c1ccc2ccccn12)N1CCCC1	-10.6%
c1cnc(NC[C@H]2OC[C@@H]3CCN(Cc4nccs4)C[C@@H]32)nc1	21.4%
CCCSc1ncc(CN(C)CCN2CCCCC2)cn1	-2.41%
CC(NCc1ccncc1)c1cc(F)ccc1N1CCN(C)CC1 (centres undefined)	-4.5%
Cc1cccc(-c2noc(CN3CCCCC3Cn3cncn3)n2)c1 (centres undefined)	-6.45%
CC(C)(C)c1cnc(CN2CCCC2Cn2cccn2)o1 (centres undefined)	-5.71%
CS(=O)(=O)NCC(=O)NC(Cc1ccccc1)C1CCCC1 (centres undefined)	-4.4%
CC(C)n1ccnc1CN1CCCN(C(=O)c2cc(Cl)c[nH]2)CC1	-3.72%
COc1ccc(C(=O)N2CC(c3ccncc3)C2)c(OC)c1OC	-5.75%
N#Cc1cccc(CNC(=O)Nc2cccnc2N2CCCC2)c1	-1.72%
CC(=O)c1cccc(NC(=O)NCCCc2nc(C(C)C)no2)c1	-1.88%
O=C(NCCN1CCNCC1)c1nc2ccccc2c(=O)[nH]1	-2.57%
Cc1nnc2n1CCN(C(=O)COCCOc1ccccc1)C2	-1.96%
COCCN(C)C(=O)NCCc1coc(-c2ccc(C)cc2)n1	7.28%
CCc1nc(CC(=O)N2CCC(C(=O)N(CC)CC)CC2)cs1	-11.2%
O=C(c1ccco1)N1CCCC(c2cc(C(F)(F)F)[nH]n2)C1 (centres undefined)	-7.38%
Cc1nc(-c2cccc(N3CCC(N4CCCC(C#N)C4)CC3)c2)cs1 (centres undefined)	22.1%
COCCC1(CO)CCCN(C(=O)CCC(F)(F)F)C1 (centres undefined)	-10.8%
NCCc1cccc(CN2CCN(c3ccccc3)C(=O)C2)c1	-9.38%
COc1ccc2cc(C(=O)N3CC[C@H](CO)[C@H](O)C3)n(C)c2c1	2.19%

SMILES	cytotoxicity at 70.5 h
CC(C)(C)NC(=O)[C@@H]1Cc2ccccc2CN1Cc1cccs1	8.37%
Cc1ccccc1N1CCN(C(=O)Cn2ccnc2)CC1=O	14.2%
Cc1noc(C)c1CN(C)C(=O)c1ccc(C(F)(F)F)nc1	-0.00923%
Cc1nc(N2CCN(C(=O)NCc3cscn3)CC2)sc1C	-2.92%
Nc1nc2c(c(N3CCC(CCn4cccn4)CC3)n1)CCNCC2	-5.53%
CN(C)[C@@H]1CCN(C(=O)Cc2cccs2)[C@H]1Cc1cnn(C)c1	-8.18%
Cc1cccc(C(=O)N2CCN(C(=O)Cc3ccccn3)CC2)c1C	-2.92%
CO[C@@H]1CCN(S(=O)(=O)N(C)C)[C@@H]2CN(Cc3cccnc3)C[C@@H]21	-4.13%
Cc1ccc(CN2C(=O)OCC2CO)c2ccccc12 (centres undefined)	-6.41%
Fc1ccccc1-c1noc2c1CN(CCN1CCOCC1)CC2	7.36%
CCOc1ccc(CC(=O)Nc2cnccc2SCCCO)cc1	-6.43%
Cc1noc([C@@H]2C[C@H](NC(=O)NC3CCCCC3)CN2C)n1	-7.54%
Cc1cnn(CCNCc2cc(C)no2)c1	2.88%
COc1ccc(C(C)Nc2ncnc3c2NC(=O)CN3)cc1 (centres undefined)	-14.1%
COCCN1CC[C@@H](O)[C@@H]1Cc1ccccc1	-16.9%
O=C(Cc1ccc(CO)cc1)N1CCN(c2ccccc2Cl)C(=O)C1	-9.48%
COCc1cccc(CNC(=O)CN2CCCC2c2noc(C)n2)c1 (centres undefined)	-13.1%
CCN(Cc1ccccn1)Cc1cc(Cl)ccc1OC	2.41%
CCCN1CCC(CNC(=O)C2(c3cc(C)cc(C)c3)CCC2)C1 (centres undefined)	16.9%
Cc1ccccc1OCC1CCCN(C(=O)CN(C)C2CCNCC2)C1 (centres undefined)	-4.15%
CN1CC(=O)N(c2ccccc2)CC12CCN(C(=O)c1cccs1)C2 (centres undefined)	-5.55%
CN(CC(=O)NCc1ccccn1)C1CCCN(c2cccnn2)C1 (centres undefined)	0.301%
